For three compounds, Ki results are on record in BindingDB's records for PubMed 9226416 (University of Sydney, 1997).

Experiment [1] concerns the target T1, Gamma-aminobutyric acid receptor subunit alpha-3 (Homo sapiens, UniProt P34903).
T1 sequence (P34903 whole entry): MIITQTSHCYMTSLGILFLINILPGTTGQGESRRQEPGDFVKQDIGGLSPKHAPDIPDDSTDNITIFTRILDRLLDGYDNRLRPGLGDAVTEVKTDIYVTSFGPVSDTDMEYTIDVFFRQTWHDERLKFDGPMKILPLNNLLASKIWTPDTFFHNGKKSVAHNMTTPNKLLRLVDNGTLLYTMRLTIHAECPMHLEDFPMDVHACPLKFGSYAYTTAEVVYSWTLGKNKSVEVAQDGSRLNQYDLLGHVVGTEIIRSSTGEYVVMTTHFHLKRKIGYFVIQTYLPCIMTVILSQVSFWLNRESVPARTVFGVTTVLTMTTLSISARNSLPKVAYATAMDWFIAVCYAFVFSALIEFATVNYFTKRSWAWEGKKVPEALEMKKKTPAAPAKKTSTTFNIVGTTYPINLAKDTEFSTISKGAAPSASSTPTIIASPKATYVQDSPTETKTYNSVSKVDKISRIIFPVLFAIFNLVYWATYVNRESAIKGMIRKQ

Experiment [2] concerns the target Gamma-aminobutyric acid (GABA) B receptor 1 (Rattus norvegicus, UniProt Q6MFX8).

SMILES strings stand for the structures. A value given as a limit tells only on which side of the number the result lay.

Chain of Gamma-aminobutyric acid (GABA) B receptor 1 (Q6MFX8 whole entry): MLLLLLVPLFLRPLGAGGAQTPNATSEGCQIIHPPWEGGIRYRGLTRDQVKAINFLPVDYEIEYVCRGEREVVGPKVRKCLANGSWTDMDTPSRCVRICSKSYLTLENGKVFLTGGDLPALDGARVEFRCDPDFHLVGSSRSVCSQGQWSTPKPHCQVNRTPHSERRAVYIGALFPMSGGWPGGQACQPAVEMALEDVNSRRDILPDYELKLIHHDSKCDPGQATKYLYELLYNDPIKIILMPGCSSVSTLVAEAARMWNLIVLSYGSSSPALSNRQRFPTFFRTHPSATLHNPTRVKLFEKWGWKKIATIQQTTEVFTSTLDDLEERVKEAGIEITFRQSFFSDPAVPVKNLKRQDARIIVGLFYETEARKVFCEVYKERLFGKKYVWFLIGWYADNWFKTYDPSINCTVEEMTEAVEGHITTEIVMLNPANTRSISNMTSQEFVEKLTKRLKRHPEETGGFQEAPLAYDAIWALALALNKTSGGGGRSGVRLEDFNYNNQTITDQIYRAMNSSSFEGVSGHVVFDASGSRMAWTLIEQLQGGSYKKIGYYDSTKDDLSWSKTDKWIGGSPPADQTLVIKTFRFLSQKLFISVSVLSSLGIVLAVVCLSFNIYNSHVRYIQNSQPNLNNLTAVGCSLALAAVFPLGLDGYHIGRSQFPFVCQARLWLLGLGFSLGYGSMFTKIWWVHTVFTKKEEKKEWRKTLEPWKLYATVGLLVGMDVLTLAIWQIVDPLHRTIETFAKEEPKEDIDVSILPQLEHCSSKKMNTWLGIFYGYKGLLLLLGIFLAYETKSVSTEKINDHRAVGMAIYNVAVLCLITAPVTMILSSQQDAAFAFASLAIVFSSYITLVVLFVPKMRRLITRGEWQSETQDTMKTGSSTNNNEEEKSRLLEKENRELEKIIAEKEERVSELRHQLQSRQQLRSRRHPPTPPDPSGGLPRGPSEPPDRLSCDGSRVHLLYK

`NCCC[PH](=O)O` [(3-aminopropyl)phosphinic acid]: the Ki came to 2470 nM in experiment [1] and 5 nM in experiment [2]. As for `CP(=O)(O)CCCN` [CGP35024], the Ki in experiment [1] amounted to 750 nM.

In the case of `CCCCP(=O)(O)CCCN` [CGP36742], in experiment [1], the Ki is more than 10000 nM.

A word on the Ki: it is a measure of affinity in units of concentration, obtained from inhibition or displacement.
